In one assay the target is Cannabinoid receptor 2 (Mus musculus, UniProt P47936). The experiment in a line: Inhibition of [3H]CP-55940 binding to cannabinoid receptor 2 of mouse spleen membranes. Type of assay: tissue-based.
Another assay addresses Cannabinoid receptor 1 (Rattus norvegicus, UniProt P20272). As to the kind of experiment: Inhibition of [3H]CP-55940 binding to cannabinoid receptor 1 of rat brain.
Assay [1] relates to Rattus norvegicus. As to the kind of experiment: In vivo cannabinergic activity in rat after 90 min of dose administration (0.03-1.8 mg/kg) using drug discrimination assay. Type of assay: functional.
The subject of assay [2] is Rattus norvegicus. The experiment in a line: In vivo cannabinergic activity in rat after 30 min of dose administration (0.03-1.8 mg/kg) using drug discrimination assay. Type of assay: functional. The note with it: 0.5 h.

What is called Ki is a measure of affinity in units of concentration, obtained from inhibition or displacement. The low end stands for higher affinity, the high end for lower affinity. The term ED50 denotes the dose at which the effect has come halfway, by size or by number of responders.

Sequence of Cannabinoid receptor 2 (P47936 whole entry): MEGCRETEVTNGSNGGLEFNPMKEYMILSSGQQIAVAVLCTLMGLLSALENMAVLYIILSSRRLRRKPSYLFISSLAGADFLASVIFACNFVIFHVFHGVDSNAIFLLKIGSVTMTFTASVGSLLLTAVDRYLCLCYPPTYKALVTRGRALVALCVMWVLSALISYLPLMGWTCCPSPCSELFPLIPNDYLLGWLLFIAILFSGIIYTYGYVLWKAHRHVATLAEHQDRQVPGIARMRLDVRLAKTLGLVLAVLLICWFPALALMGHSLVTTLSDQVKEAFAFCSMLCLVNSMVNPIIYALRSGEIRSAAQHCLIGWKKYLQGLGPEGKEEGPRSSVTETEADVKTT
Sequence of Cannabinoid receptor 1 (P20272 whole entry): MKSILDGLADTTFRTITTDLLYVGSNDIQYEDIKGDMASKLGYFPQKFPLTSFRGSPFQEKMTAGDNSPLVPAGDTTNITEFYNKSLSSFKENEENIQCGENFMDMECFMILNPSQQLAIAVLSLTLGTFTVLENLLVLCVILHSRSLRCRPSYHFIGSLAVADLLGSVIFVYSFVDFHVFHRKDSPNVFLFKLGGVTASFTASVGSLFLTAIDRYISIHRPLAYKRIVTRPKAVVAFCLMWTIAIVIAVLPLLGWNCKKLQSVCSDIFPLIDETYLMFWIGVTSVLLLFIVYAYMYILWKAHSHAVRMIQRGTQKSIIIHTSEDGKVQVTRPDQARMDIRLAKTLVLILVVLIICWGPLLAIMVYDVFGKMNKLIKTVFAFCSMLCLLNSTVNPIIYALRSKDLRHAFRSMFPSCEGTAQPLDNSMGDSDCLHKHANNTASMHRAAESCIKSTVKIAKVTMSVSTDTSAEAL

Turning to `CC1=CC[C@@H]2[C@@H](C1)c1c(O)cc(CC3C4CC5CC(C4)CC3C5)cc1OC2(C)C` (stereo partly drawn), the inhibition constant (Ki) was determined as 76 nM at Cannabinoid receptor 2 and 79.7 nM at Cannabinoid receptor 1.
In the case of `CC1=CC[C@@H]2[C@@H](C1)c1c(O)cc(CC34CC5CC(CC(C5)C3)C4)cc1OC2(C)C`, the Ki at Cannabinoid receptor 2 amounted to 26.9 nM; at Cannabinoid receptor 1 it was 29.3 nM.
Consider `CC1=CC[C@@H]2[C@@H](C1)c1c(O)cc(C34CC5CC(CC(C5)C3)C4)cc1OC2(C)C`, for which the inhibitory constant (Ki) at Cannabinoid receptor 2 was 52 nM; at Cannabinoid receptor 1, 6.8 nM. Moreover, the ED50 with Rattus norvegicus [1] amounted to 0.41 mg/kg; with Rattus norvegicus [1] (Rattus norvegicus, 1.5 h, read-out: ED50), 0.44 mg/kg; in the assay on Rattus norvegicus [2] it was 0.68 mg/kg.
For `CC1=CC[C@@H]2[C@@H](C1)c1c(O)cc(C=C3C4CC5CC(C4)CC3C5)cc1OC2(C)C`, the inhibition constant Ki at Cannabinoid receptor 2 turned out to be 8.9 nM; at Cannabinoid receptor 1, 48.6 nM.
For `CC1=CC[C@@H]2[C@@H](C1)c1c(O)cc(C3C4CC5CC(C4)CC3C5)cc1OC2(C)C` (stereo partly drawn) the same measures were 14 nM and 34.9 nM.
